# Data as given in the supplement of paper PMC12137928.
# Where a name gives a salt, the structure may show the parent alone.
# Test system: HCT116
# Details: 72 h
# Method in brief: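 HCT116 cells were seeded at 250 per well in 1536-well plates with 5 h allowed for attachment. CellTiter-Glo luminescence was normalized against vehicle (0%) and positive control (-100%) before pattern correction. The IC50 and maximal efficacy figures derive from four-parameter Hill fits.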
IC50 cell viability (ICRF193 0 nM),IC50 cell viability (ICRF193 200 nM),Compound
> 45.8 µM,> 45.8 µM,C[C@@H](O)[C@H]1C(=O)N2C(C(=O)O)=C(S[C@@H]3CN[C@H](CNS(N)(=O)=O)C3)[C@H](C)[C@H]12 [Doripenem]
> 45.8 µM,> 45.8 µM,CCN[C@H]1C[C@H](C)S(=O)(=O)c2sc(S(N)(=O)=O)cc21 [Dorzolamide hydrochloride]
> 45.8 µM,> 45.8 µM,CCN1CC(CCN2CCOCC2)C(c2ccccc2)(c2ccccc2)C1=O (stereo not drawn) [Doxapram hydrochloride]
> 45.8 µM,> 45.8 µM,CN(C)CCC=C1c2ccccc2COc2ccccc21 [Doxepin hydrochloride]
> 45.8 µM,> 45.8 µM,C[C@H]1O[C@@H](n2cc(F)c(=O)[nH]c2=O)[C@H](O)[C@@H]1O [Doxifluridine]
> 45.8 µM,> 45.8 µM,CN(C)CCOC(C)(c1ccccc1)c1ccccn1 (stereo not drawn) [Doxylamine succinate]
> 45.8 µM,> 45.8 µM,O=C(CCCN1CC=C(n2c(=O)[nH]c3ccccc32)CC1)c1ccc(F)cc1 [Droperidol]
> 45.8 µM,> 45.8 µM,N[C@H](C(=O)O)[C@H](O)c1ccc(O)c(O)c1 [Droxidopa]
> 45.8 µM,> 45.8 µM,C[C@]12C=CC(=O)N[C@@H]1CC[C@@H]1[C@@H]2CC[C@]2(C)[C@@H](C(=O)Nc3cc(C(F)(F)F)ccc3C(F)(F)F)CC[C@@H]12 [Dutasteride]
> 45.8 µM,> 45.8 µM,CCCCOc1ccc(C(=O)CCN2CCCCC2)cc1 [Dyclonine hydrochloride]
> 45.8 µM,> 45.8 µM,Cn1c(=O)c2c(ncn2CC(O)CO)n(C)c1=O (stereo not drawn) [Dyphylline]
> 45.8 µM,> 45.8 µM,O=c1c2c(c1=O)N(CCP(=O)(O)O)CCCN2 [EAA-090]
> 45.8 µM,> 45.8 µM,CCOC(=O)COc1ccc2c(=O)cc(-c3ccccc3)oc2c1 [EFLOXATE]
> 45.8 µM,> 45.8 µM,CC1(C)[C@@H](O)CC[C@]2(C)[C@H]3C(=O)C=C4[C@@H]5C[C@@](C)(C(=O)O)CC[C@]5(C)CC[C@@]4(C)[C@]3(C)CC[C@@H]12 [ENOXOLONE]
> 45.8 µM,> 45.8 µM,Cc1ccc(/C=C2/C(=O)C3(C)CCC2C3(C)C)cc1 (stereo not drawn) [ENZACAMENE]
> 45.8 µM,> 45.8 µM,CCOC(=O)CCC(=O)O[C@H]1[C@H](O[C@@H]2[C@@H](C)[C@H](O[C@H]3C[C@@](C)(OC)[C@@H](O)[C@H](C)O3)[C@@H](C)C(=O)O[C@H](CC)[C@@](C)(O)[C@H](O)[C@@H](C)C(=O)[C@H](C)C[C@@]2(C)O)O[C@H](C)C[C@@H]1N(C)C [ERYTHROMYCIN ETHYLSUCCINATE]
> 45.8 µM,> 45.8 µM,C[C@]12CC[C@@H]3c4ccc(OC(=O)c5ccccc5)cc4CC[C@H]3[C@@H]1CC[C@@H]2O [ESTRADIOL BENZOATE]
> 45.8 µM,> 45.8 µM,C[C@]12CC[C@@H]3c4ccc(OS(=O)(=O)O)cc4CC[C@H]3[C@@H]1CCC2=O [ESTROPIPATE]
> 45.8 µM,> 45.8 µM,CC1=NN(c2ccccc2)C(=O)C1 [Edaravone]
> 45.8 µM,> 45.8 µM,CN1CCc2nc(C(=O)N[C@@H]3C[C@@H](C(=O)N(C)C)CC[C@@H]3NC(=O)C(=O)Nc3ccc(Cl)cn3)sc2C1 [Edoxaban tosylate monohydrate]
> 45.8 µM,> 45.8 µM,CC[N+](C)(C)c1cccc(O)c1 [Edrophonium chloride]
> 45.8 µM,> 45.8 µM,C=C1CCN([C@H](C)[C@](O)(Cn2cncn2)c2ccc(F)cc2F)CC1 [Efinaconazole]
> 45.8 µM,> 45.8 µM,NCCCC(N)(C(=O)O)C(F)F (stereo not drawn) [Eflornithine Hydrochloride]
> 45.8 µM,> 45.8 µM,CC/C=C\C/C=C\C/C=C\C/C=C\C/C=C\CCCC(=O)O [Eicosapentaenoic Acid]
> 45.8 µM,> 45.8 µM,CC/C=C\C/C=C\C/C=C\C/C=C\C/C=C\CCCC(=O)OCC [Eicosapentaenoic acid ethyl ester]
> 45.8 µM,> 45.8 µM,CCCCCCCC/C=C/CCCCCCCC(=O)O [Elaidic Acid]
> 45.8 µM,> 45.8 µM,COC(=O)N[C@H](C(=O)N1CCC[C@H]1c1nc(-c2ccc3c(c2)O[C@@H](c2ccccc2)n2c-3cc3cc(-c4c[nH]c([C@@H]5CCCN5C(=O)[C@@H](NC(=O)OC)C(C)C)n4)ccc32)c[nH]1)C(C)C [Elbasvir]

IC50 cell viability (ICRF193 0 nM),IC50 cell viability (ICRF193 200 nM),Compound
> 45.8 µM,> 45.8 µM,C=C1/C(=C\C=C2/CCC[C@]3(C)[C@@H]([C@H](C)CCCC(C)(C)O)CC[C@@H]23)C[C@@H](O)[C@@H](OCCCO)[C@@H]1O [Eldecalcitol]
> 45.8 µM,> 45.8 µM,CN1CCC[C@@H]1Cc1c[nH]c2ccc(CCS(=O)(=O)c3ccccc3)cc12 [Eletriptan]
> 45.8 µM,> 45.8 µM,O=c1oc2c(O)c(O)cc3c(=O)oc4c(O)c(O)cc1c4c23 [Ellagic acid]
> 45.8 µM,> 45.8 µM,CCOCCn1c(N2CCCN(C)CC2)nc2ccccc21 [Emedastine difumarate]
> 45.8 µM,> 45.8 µM,CCOC(=O)c1ccc(OCCN2C[C@H](O)[C@@H](O)[C@H](O)[C@H]2CO)cc1 [Emiglitate]
> 45.8 µM,> 45.8 µM,CC(C)C[C@H]1C(=O)O[C@H](Cc2ccc(N3CCOCC3)cc2)C(=O)N(C)[C@@H](CC(C)C)C(=O)O[C@H](C)C(=O)N(C)[C@@H](CC(C)C)C(=O)O[C@H](Cc2ccc(N3CCOCC3)cc2)C(=O)N(C)[C@@H](CC(C)C)C(=O)O[C@H](C)C(=O)N1C [Emodepside]
> 45.8 µM,> 45.8 µM,CCOc1c(N2CCOCC2)cnn(C)c1=O [Emorfazone]
> 45.8 µM,> 45.8 µM,Nc1nc(=O)n([C@@H]2CS[C@H](CO)O2)cc1F [Emtricitabine]
> 45.8 µM,> 45.8 µM,C[C@H](N[C@@H](CCc1ccccc1)C(=O)O)C(=O)N1CCC[C@H]1C(=O)O [Enalapril acid]
> 45.8 µM,> 45.8 µM,CCOC(=O)[C@H](CCc1ccccc1)N[C@@H](C)C(=O)N1CCC[C@H]1C(=O)O [Enalapril maleate]
> 45.8 µM,> 45.8 µM,CC(C)(O)CNc1nc(Nc2ccnc(C(F)(F)F)c2)nc(-c2cccc(C(F)(F)F)n2)n1 [Enasidenib]
> 45.8 µM,> 45.8 µM,COc1ccc(C(=O)Nc2ccccc2CCC2CCCCN2C)cc1 (stereo not drawn) [Encainide hydrochloride]
> 45.8 µM,> 45.8 µM,CCCCCCCCCCCCCCCCCCCCCC(=O)Nc1ccn([C@@H]2O[C@H](CO)[C@@H](O)[C@@H]2O)c(=O)n1 [Enocitabine]
> 45.8 µM,> 45.8 µM,CCn1cc(C(=O)O)c(=O)c2cc(F)c(N3CCNCC3)nc21 [Enoxacin]
> 45.8 µM,> 45.8 µM,CSc1ccc(C(=O)c2[nH]c(=O)[nH]c2C)cc1 [Enoximone]
> 45.8 µM,> 45.8 µM,CCN1CCN(c2cc3c(cc2F)c(=O)c(C(=O)O)cn3C2CC2)CC1 [Enrofloxacin]
> 45.8 µM,> 45.8 µM,O=S(=O)(O)c1ccc2[nH]c(-c3ccccc3)nc2c1 [Ensulizole]
> 45.8 µM,> 45.8 µM,CCN(CC)C(=O)/C(C#N)=C/c1cc(O)c(O)c([N+](=O)[O-])c1 [Entacapone]
> 45.8 µM,> 45.8 µM,C=C1[C@H](CO)[C@@H](O)C[C@@H]1n1cnc2c(=O)[nH]c(N)nc21 [Entecavir (monohydrate)]
> 45.8 µM,> 45.8 µM,CC(/C=C1\SC(=S)N(CC(=O)O)C1=O)=C\c1ccccc1 [Epalrestat]
> 45.8 µM,> 45.8 µM,NC1=NCC2c3ccccc3Cc3ccccc3N12 (stereo not drawn) [Epinastine hydrochloride]
> 45.8 µM,> 45.8 µM,CNC[C@H](O)c1ccc(O)c(O)c1 [Epinephrine]
> 45.8 µM,> 45.8 µM,COc1cc(C)nc(-n2nc(C)cc2OC)n1 [Epirizole]
> 45.8 µM,> 45.8 µM,COC(=O)[C@@H]1CC2=CC(=O)CC[C@]2(C)[C@@]23O[C@@H]2C[C@@]2(C)[C@@H](CC[C@@]24CCC(=O)O4)[C@H]13 [Eplerenone]
> 45.8 µM,> 45.8 µM,CCCCC[C@H](O)/C=C/[C@@H]1[C@H]2C/C(=C/CCCC(=O)O)O[C@H]2C[C@H]1O [Epoprostenol sodium]
> 45.8 µM,> 45.8 µM,CCOC(CN1CCN(CC(C)C(=O)c2ccccc2)CC1)c1ccccc1 (stereo not drawn) [Eprazinone dihydrochloride]

Compound,IC50 cell viability (ICRF193 0 nM),IC50 cell viability (ICRF193 200 nM)
CCC(=O)O[C@H]1CC[C@H]2[C@@H]3CC[C@H]4CC(=O)[C@H](C)C[C@]4(C)[C@H]3CC[C@]12C [Drostanolone propionate],> 45.8 µM,> 45.8 µM
COc1ccc(CN(C(=O)[C@@H](N)Cc2c(C)cc(C(N)=O)cc2C)[C@@H](C)c2ncc(-c3ccccc3)[nH]2)cc1C(=O)O [Eluxadoline],> 45.8 µM,> 45.8 µM
CCC(CC)(CNC(=O)CCCO)c1cccc(OC)c1 [Embutramide],> 45.8 µM,> 45.8 µM
FC(F)OC(F)(F)C(F)Cl (stereo not drawn) [Enflurane],> 45.8 µM,> 45.8 µM
Cn1cc(C2=C(c3cn(C4CCN(Cc5ccccn5)CC4)c4ccccc34)C(=O)NC2=O)c2ccccc21 [Enzastaurin],> 45.8 µM,> 45.8 µM
C[C@]12C[C@H]3S[C@H]3C[C@@H]1CC[C@@H]1[C@@H]2CC[C@]2(C)[C@@H](O)CC[C@@H]12 [Epitiostanol],> 45.8 µM,> 45.8 µM
